For 22 compounds, T/C results are on record in PubChem BioAssay AID294 (DTP/NCI, 2004).

The test deals with MX-1 breast xenograft, nude mice, tumor weight change. Description: NCI In Vivo Anticancer Drug Screen. Data for tumor model Human Mammary Carcinoma MX-1 Xenograft (subcutaneous) in NU/NU Swiss (nude) mice. Conditions: endpoint: optimum tumor weight change, schedule: Q04DX003 (ip), higher = larger tumour. Here is the method:
The antitumor activity of compounds was measured in mice bearing transplantable tumors. Survival or tumor size were measured and the results are expressed as the measurement made in the treated group (T) divided by the measurement made in the vehicle treated control group (C). The tumor model used in this assay is Human Mammary Carcinoma MX-1 Xenograft (subcutaneous) in NU/NU Swiss (nude) mice
In general terms: In xenograft studies the graft and the host belong to different species.

Setting [1] is: dose: 5.0 mg/kg/injection, vehicle: Klucel (hydroxypropylcellulose) (HPC).
[2] abbreviates: dose: 10.0 mg/kg/injection, vehicle: Klucel (hydroxypropylcellulose) (HPC).
Where [3] appears, read: dose: 100.0 mg/kg/injection, vehicle: Klucel (hydroxypropylcellulose) (HPC).
Where [4] appears, read: dose: 25.0 mg/kg/injection, vehicle: Klucel (hydroxypropylcellulose) (HPC).
[5] abbreviates: dose: 1.0 mg/kg/injection, vehicle: water.
The mark [6] stands for this setting: dose: 1.0 mg/kg/injection, vehicle: saline.
The mark [7] stands for this setting: dose: 800.0 mg/kg/injection, vehicle: saline with Tween-80.
The mark [8] stands for this setting: dose: 400.0 mg/kg/injection, vehicle: saline with Tween-80.
Setting [9] is: dose: 1600.0 mg/kg/injection, vehicle: saline with Tween-80.
Setting [10] is: dose: 100.0 mg/kg/injection, vehicle: saline with Tween-80.
The mark [11] stands for this setting: dose: 200.0 mg/kg/injection, vehicle: saline with Tween-80.

Where “and” joins values, the source holds several entries; their conditions need not be identical. Equal entries are not always repeated.

Turning to `Oc1ccc(O)cc1`, the T/C (dose: 100.0 mg/kg/injection, vehicle: saline) is 110 % of control.

As to `COC1C(C)OC(OC2CC(C)(O)Cc3cc4c(c(O)c32)C(=O)c2c(O)cc3c(c2C4=O)OC2OC3(C)C(O)C(N(C)C)C2O)C(OC)C1(C)OC` (stereo not given), the T/C is, setting by setting: under setting [1], 204 % of control; under setting [2], 207 % of control.

Consider `CN(C)N=Nc1cn[nH]c1C(N)=O`, for which the T/C is 100 % of control (dose: 50.0 mg/kg/injection, vehicle: Klucel (hydroxypropylcellulose) (HPC)); 98 % of control under setting [3]; 71 % of control (dose: 200.0 mg/kg/injection, vehicle: Klucel (hydroxypropylcellulose) (HPC)); 82 % of control (dose: 400.0 mg/kg/injection, vehicle: Klucel (hydroxypropylcellulose) (HPC)).

For the compound `CN1N=C(N)c2cn(C3OC(COP(=O)(O)O)C(O)C3O)c3ncnc1c23` (stereo not given), where the note is “dose: 25.0 mg/kg/injection, vehicle: water”, the T/C is 102 % of control.

Regarding `CCOC(=O)C1C2OC(=O)C(C(=O)C2CN(CCCl)CCCl)C1C1CC=C(CC2=CCC(C3C4C(=O)OC(C(CN(CCCl)CCCl)C4=O)C3C(=O)OCC)CC2)CC1` (stereo not given), the T/C under setting [4] is 58 % of control and the T/C under setting [3] was 35 % of control.

Take `CC1CCC(NC(=O)N(CCCl)N=O)CC1` (stereo not given): the T/C under setting [4] was 50 % of control.

Regarding `CSc1cc(=O)n2c3ccccc3c3ccnc1c32`, the T/C is, setting by setting: (dose: 10.0 mg/kg/injection, vehicle: saline with Tween-80) 61 % of control; (dose: 20.0 mg/kg/injection, vehicle: saline with Tween-80) 50 % of control and 67 % of control; (dose: 80.0 mg/kg/injection, vehicle: saline with Tween-80) 27 % of control.

For the compound `O=S(CCCl)CCCl`, the T/C under setting [4] was 75 % of control and the T/C under setting [3] is 34 % of control.

On to `COc1cccc2c1C(=O)c1c(O)c3c(c(O)c1C2=O)C[C@@](O)(C(=O)CO)C[C@@H]3OC1CC(N)C(O)C(C)O1` (stereo not given in full), for which the T/C under setting [5] was 97 % of control.

Turning to `OC(C1CO1)C(O)C1CO1` (stereo not given), the T/C under setting [6] was 70 % of control.

For `COc1cccc2c1C(=O)c1c(O)c3c(c(O)c1C2=O)C[C@@](O)(C(=O)CO)C[C@@H]3OC1CC(N)CC(C)O1` (stereo not given in full), the T/C by setting is: (dose: 0.13 mg/kg/injection, vehicle: water) 93 % of control; (dose: 0.25 mg/kg/injection, vehicle: water) 112 % of control; (dose: 0.5 mg/kg/injection, vehicle: water) 97 % of control; (dose: 0.75 mg/kg/injection, vehicle: water) 93 % of control; under setting [5], 65 % of control; (dose: 1.5 mg/kg/injection, vehicle: water) 78 % of control. Also, the T/C (dose: 3.0 mg/kg/injection, vehicle: water) was 63 % of control.

Regarding `NC(Cc1ccc(N(CCCl)CCCl)cc1)C(=O)O` (stereo not given), the T/C was 49 % of control (dose: 2.5 mg/kg/injection, vehicle: Klucel (hydroxypropylcellulose) (HPC)); 15 % of control under setting [1]; -69 % of control and -81 % of control under setting [2].

In the case of `C[C@]12CC[C@@H]3c4ccc(OC(=O)Cc5ccc(N(CCCl)CCCl)cc5)cc4CC[C@H]3[C@@H]1CC[C@@H]2OC(=O)Cc1ccc(N(CCCl)CCCl)cc1`, the T/C under setting [7] is 50 % of control.

For the compound `O=C(O)CP(=O)(O)O`, the T/C runs as follows: (dose: 200.0 mg/kg/injection, vehicle: saline) 87 % of control; (dose: 400.0 mg/kg/injection, vehicle: saline) 69 % of control; (dose: 800.0 mg/kg/injection, vehicle: saline) 48 % of control; (dose: 1600.0 mg/kg/injection, vehicle: saline) 50 % of control.

Turning to `N[C@@H](Cc1ccc(N(CCCl)CCCl)cc1)C(=O)O`, the T/C reads like this: (dose: 2.0 mg/kg/injection, vehicle: Klucel (hydroxypropylcellulose) (HPC)) 49 % of control; (dose: 4.0 mg/kg/injection, vehicle: Klucel (hydroxypropylcellulose) (HPC)) 37 % of control; (dose: 4.0 mg/kg/injection, vehicle: suspension in saline) 19 % of control and 36 % of control; (dose: 8.0 mg/kg/injection, vehicle: Klucel (hydroxypropylcellulose) (HPC)) -42 % of control.

Turning to `CC(C)=CCNc1ncnc2c1ncn2C1OC(CO)C(O)C1O` (stereo not given), the T/C was 39 % of control (dose: 200.0 mg/kg/injection, vehicle: suspension in saline) and 77 % of control (dose: 400.0 mg/kg/injection, vehicle: suspension in saline).

In the case of `Nc1ccc(Cl)cc1N`, the T/C was 109 % of control under setting [8]; 110 % of control under setting [7]; 117 % of control under setting [9]; 80 % of control (dose: 3200.0 mg/kg/injection, vehicle: saline with Tween-80).

As for `ClCC[N+]12CC[N+](CCCl)(CC1)C2`, the T/C by setting is: under setting [10], 60 % of control; under setting [11], 56 % of control; (dose: 200.0 mg/kg/injection, vehicle: water) 51 % of control; under setting [8], 59 % of control; (dose: 400.0 mg/kg/injection, vehicle: water) 53 % of control; under setting [7], 31 % of control. The T/C under setting [9] is 28 % of control.

As for `CCN(CC)CCCC(C)Nc1c2ccc(Cl)cc2nc2ccc(OC)cc12` (stereo not given), the T/C was 95 % of control (dose: 50.0 mg/kg/injection, vehicle: saline with Tween-80) and 88 % of control under setting [10].

With `Cc1cc(N(CC(C)Br)CC(C)Br)ccc1N=Nc1ccccc1C(=O)O` (stereo not given), the T/C is, setting by setting: (dose: 3.13 mg/kg/injection, vehicle: saline with Tween-80) 75 % of control; (dose: 6.25 mg/kg/injection, vehicle: saline with Tween-80) 73 % of control; (dose: 12.5 mg/kg/injection, vehicle: saline with Tween-80) 61 % of control.

In the case of `COc1cccc2c1C(=O)c1c(O)c3c(c(O)c1C2=O)C[C@@](O)(C(C)=O)C[C@@H]3OC1CC(N)C(O)C(C)O1` (stereo not given in full), the T/C under setting [6] was 72 % of control.

For `NC(=S)N/N=C/c1ccc(O)cn1`, the T/C is 81 % of control under setting [10], 46 % of control under setting [11], 39 % of control under setting [8] and 73 % of control under setting [7].
